Experiments:
[1] = target: T1, UPPS (Undecaprenyl Pyrophosphate Synthase) (Bacteroides fragilis, UniProt Q5LI17); assay: RP-HPLC with fluorescence detection, TLC, ESI-MS, 1H-NMR of product; format: biochemical; settings: IPP 0.2 mM, MgCl2 0.5 mM, KCl 5 mM, 0.1% DDM, HEPES pH 7.4, 37 °C
T1 sequence (Q5LI17 1-244): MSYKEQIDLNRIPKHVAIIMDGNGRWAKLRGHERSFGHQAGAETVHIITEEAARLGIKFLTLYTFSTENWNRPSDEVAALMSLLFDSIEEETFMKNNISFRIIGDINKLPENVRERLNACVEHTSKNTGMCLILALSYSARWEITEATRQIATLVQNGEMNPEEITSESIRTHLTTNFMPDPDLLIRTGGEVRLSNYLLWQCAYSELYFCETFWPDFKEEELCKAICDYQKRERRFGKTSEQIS

[2] = target: T1, UPPS (Undecaprenyl Pyrophosphate Synthase); assay: RP-HPLC with fluorescence detection; format: biochemical; settings: IPP 0.2 mM, MgCl2 0.5 mM, KCl 5 mM, 0.1% DDM, HEPES pH 7.4, 37 °C, 1 h

C/C(=C\COP(=O)(O)OP(=O)(O)O)CC/C=C(\C)CNc1ccccc1C(N)=O [6b, (6E)-8-(2-amideaniline)-3,7-dimethyl-2,6-octadiene diphosphate]
RP-HPLC with fluorescence detection, TLC, ESI-MS, 1H-NMR of product [1]: these results confirmed the formation of the long chain isoprenoid with 2AB-G-PP as the UPPS substrate

C/C(=C/COP(=O)(O)OP(=O)(O)O)CC/C=C(\C)CNc1ccccc1C(N)=O [6a, (6Z)-8-(2-amideaniline)-3,7-dimethyl-2,6-octadiene diphosphate]
RP-HPLC with fluorescence detection [2]: we observed identical activity with 2AB-N-PP

From paper PMC3758898 (Bioorganic & medicinal chemistry, 2013)
